These results are taken from PubChem BioAssay AID1259407 (Chemical Carcinogenesis Research Information System (CCRIS), 2018).

In the data set the test system is CCRIS mutagenicity, Ames/micronucleus/aberration tests. Description: CCRIS mutagenicity studies.
Setting [1] is: End Point: IN VITRO CHROMOSOMAL ABERRATIONS, Test System: CHO-LB CELLS, Metabolic Activation: NONE.
Setting [2] is: End Point: IN VITRO CHROMOSOMAL ABERRATIONS, Test System: CHO-LB CELLS, Metabolic Activation: RAT, LIVER, S-9, AROCLOR 1254.
Setting [3] is: Test System: AMES SALMONELLA TYPHIMURIUM, Strain/Indicator: TA97, Metabolic Activation: HAMSTER, LIVER, S-9, AROCLOR 1254 (10 OR 30%), Method: PREINCUBATION
The mark [4] stands for this setting: Test System: AMES SALMONELLA TYPHIMURIUM, Strain/Indicator: TA97, Metabolic Activation: NONE, Method: PREINCUBATION
Where [5] appears, read: Test System: AMES SALMONELLA TYPHIMURIUM, Strain/Indicator: TA97, Metabolic Activation: RAT, LIVER, S-9, AROCLOR 1254 (10 OR 30%), Method: PREINCUBATION
Setting [6] is: Test System: AMES SALMONELLA TYPHIMURIUM, Strain/Indicator: TA98, Metabolic Activation: HAMSTER, LIVER, S-9, AROCLOR 1254 (10 OR 30%), Method: PREINCUBATION
Where [7] appears, read: Test System: AMES SALMONELLA TYPHIMURIUM, Strain/Indicator: TA98, Metabolic Activation: NONE, Method: PREINCUBATION
[8] abbreviates: Test System: AMES SALMONELLA TYPHIMURIUM, Strain/Indicator: TA98, Metabolic Activation: RAT, LIVER, S-9, AROCLOR 1254 (10 OR 30%), Method: PREINCUBATION
[9] abbreviates: Test System: AMES SALMONELLA TYPHIMURIUM, Strain/Indicator: TA100, Metabolic Activation: HAMSTER, LIVER, S-9, AROCLOR 1254 (10 OR 30%), Method: PREINCUBATION
[10] abbreviates: Test System: AMES SALMONELLA TYPHIMURIUM, Strain/Indicator: TA100, Metabolic Activation: NONE, Method: PREINCUBATION
Setting [11] is: Test System: AMES SALMONELLA TYPHIMURIUM, Strain/Indicator: TA100, Metabolic Activation: RAT, LIVER, S-9, AROCLOR 1254 (10 OR 30%), Method: PREINCUBATION
[12] abbreviates: Test System: AMES SALMONELLA TYPHIMURIUM, Strain/Indicator: TA1535, Metabolic Activation: HAMSTER, LIVER, S-9, AROCLOR 1254 (10 OR 30%), Method: PREINCUBATION
The mark [13] stands for this setting: Test System: AMES SALMONELLA TYPHIMURIUM, Strain/Indicator: TA1535, Metabolic Activation: NONE, Method: PREINCUBATION
Setting [14] is: Test System: AMES SALMONELLA TYPHIMURIUM, Strain/Indicator: TA1535, Metabolic Activation: RAT, LIVER, S-9, AROCLOR 1254 (10 OR 30%), Method: PREINCUBATION
[15] abbreviates: Test System: AMES SALMONELLA TYPHIMURIUM, Strain/Indicator: TA1537, Metabolic Activation: HAMSTER, LIVER, S-9, AROCLOR 1254 (30%), Method: PREINCUBATION
The mark [16] stands for this setting: Test System: AMES SALMONELLA TYPHIMURIUM, Strain/Indicator: TA1537, Metabolic Activation: NONE, Method: PREINCUBATION
[17] abbreviates: Test System: AMES SALMONELLA TYPHIMURIUM, Strain/Indicator: TA1537, Metabolic Activation: RAT, LIVER, S-9, AROCLOR 1254 (30%), Method: PREINCUBATION
The mark [18] stands for this setting: Test System: AMES SALMONELLA TYPHIMURIUM, Strain/Indicator: TA98, Metabolic Activation: NONE, Method: STANDARD PLATE.
[19] abbreviates: Test System: AMES SALMONELLA TYPHIMURIUM, Strain/Indicator: TA100, Metabolic Activation: NONE, Method: STANDARD PLATE.
Where [20] appears, read: Test System: AMES SALMONELLA TYPHIMURIUM, Strain/Indicator: TA98, Metabolic Activation: RAT, LIVER, S-9, AROCLOR 1254, Method: STANDARD PLATE.
Setting [21] is: Test System: AMES SALMONELLA TYPHIMURIUM, Strain/Indicator: TA100, Metabolic Activation: RAT, LIVER, S-9, AROCLOR 1254, Method: STANDARD PLATE.

Calls of active or inactive are those of the source. No rule for the calls is given here.

For the compound `C[C@@H]1[C@H](O)[C@@H](C)/C=C/C=C/C=C/C=C/C=C/C=C/C=C/[C@H](O[C@@H]2O[C@H](C)[C@@H](O)[C@H](N)[C@@H]2O)C[C@@H]2O[C@](O)(C[C@@H](O)C[C@@H](O)[C@H](O)CC[C@@H](O)C[C@@H](O)CC(=O)O[C@H]1C)C[C@H](O)[C@H]2C(=O)O`, the mutagenic call is “inactive; negative” under setting [1]; “inactive; negative” under setting [2]; “inactive; negative” under setting [3]; “inactive; negative” under setting [4]; “inactive; negative” under setting [5]; “inactive; negative” under setting [6]. Further, the mutagenic call is, setting by setting: under setting [7], “inactive; negative”; under setting [8], “inactive; negative”; under setting [9], “inactive; negative”; under setting [10], “inactive; negative”; under setting [11], “inactive; negative”; under setting [12], “inactive; negative”. Further, the mutagenic call by setting is: under setting [13], “inactive; negative”; under setting [14], “inactive; negative”; under setting [15], “inactive; negative”; under setting [16], “inactive; negative”; under setting [17], “inactive; negative”.
With `CCC(C)c1ccc(/C=C/c2ccc([N+](=O)[O-])cc2)cc1` (stereo unspecified), the mutagenic call under setting [18] is “active; positive”; the mutagenic call (Test System: AMES SALMONELLA TYPHIMURIUM, Strain/Indicator: TA98, Metabolic Activation: RAT, LIVER, S-9, AROCLOR, Method: STANDARD PLATE) was “active; positive”; the mutagenic call under setting [19] was “inactive; negative”; the mutagenic call (Test System: AMES SALMONELLA TYPHIMURIUM, Strain/Indicator: TA100, Metabolic Activation: RAT, LIVER, S-9, AROCLOR, Method: STANDARD PLATE) is “active; positive”.
`CSc1cc(SC)c(N)c(C)c1N`: under setting [20], the mutagenic call is “active; positive”.
As to `CCCCCN(CCCOC)C(=O)C(CCC(=O)O)NC(=O)c1ccc(Cl)c(Cl)c1` (stereo unspecified), the mutagenic call under setting [7] was “inactive; negative”; the mutagenic call (Test System: AMES SALMONELLA TYPHIMURIUM, Strain/Indicator: TA98, Metabolic Activation: RAT LIVER S-9, PHENOBARBITAL AND 5,6-BENZOFLAVONE, Method: PREINCUBATION) is “inactive; negative”; the mutagenic call under setting [10] is “inactive; negative”; the mutagenic call (Test System: AMES SALMONELLA TYPHIMURIUM, Strain/Indicator: TA100, Metabolic Activation: RAT LIVER S-9, PHENOBARBITAL AND 5,6-BENZOFLAVONE, Method: PREINCUBATION) was “inactive; negative”; the mutagenic call under setting [13] is “inactive; negative”; the mutagenic call (Test System: AMES SALMONELLA TYPHIMURIUM, Strain/Indicator: TA1535, Metabolic Activation: RAT LIVER S-9, PHENOBARBITAL AND 5,6-BENZOFLAVONE, Method: PREINCUBATION) is “inactive; negative”. The mutagenic call reads like this: under setting [16], “inactive; negative”; (Test System: AMES SALMONELLA TYPHIMURIUM, Strain/Indicator: TA1537, Metabolic Activation: RAT LIVER S-9, PHENOBARBITAL AND 5,6-BENZOFLAVONE, Method: PREINCUBATION) “inactive; negative”; (Test System: E.COLI, Strain/Indicator: WP2 UVRA, Metabolic Activation: NONE, Method: PREINCUBATION) “inactive; negative”; (Test System: E.COLI, Strain/Indicator: WP2 UVRA, Metabolic Activation: RAT LIVER S-9, PHENOBARBITAL AND 5,6-BENZOFLAVONE, Method: PREINCUBATION) “inactive; negative”.
Consider `O=c1c(=O)c2cc3ccccc3c3ccc4cccc1c4c23`, for which the mutagenic call under setting [21] is “active; positive”.
For `CN(C)S(=O)(=O)CCNC(=O)N(CCCl)N=O`, the mutagenic call by setting is: under setting [19], “active; positive”; under setting [21], “active; positive”.
Consider `COc1ccc2c(c1)-c1c(OC)c(OC)cc3c1C(C2=O)N(C)CC3` (stereo unspecified), for which the mutagenic call (Test System: AMES SALMONELLA TYPHIMURIUM, Strain/Indicator: TA100, Metabolic Activation: RAT, LIVER, S-9, PHENOBARBITAL AND BETA-NAPHTHOFLAVONE, Method: PREINCUBATION) was “inactive; negative”.
For `COCCOC(C)=O`, the mutagenic call is “inactive; negative” under setting [1]; “active; positive” under setting [2]; “inactive; negative” under setting [3]; “inactive; negative” under setting [4]; “inactive; negative” under setting [5]; “inactive; negative” under setting [6]. The mutagenic call was “inactive; negative” under setting [7]; “inactive; negative” under setting [8]; “inactive; negative” under setting [9]; “inactive; negative” under setting [10]; “inactive; negative” under setting [11]; “inactive; negative” under setting [12]. In addition, the mutagenic call under setting [13] is “inactive; negative”; the mutagenic call under setting [14] was “inactive; negative”; the mutagenic call under setting [15] was “inactive; negative”; the mutagenic call under setting [16] is “inactive; negative”; the mutagenic call under setting [17] was “inactive; negative”.
Consider `CC(=O)OCc1cocc2c(C=O)ccc1-2`, for which the mutagenic call was “active; positive” under setting [18]; “active; positive” under setting [20]; “active; positive” under setting [19]; “active; positive” under setting [21]; “inactive; negative” (Test System: AMES SALMONELLA TYPHIMURIUM, Strain/Indicator: TA1535, Metabolic Activation: NONE, Method: STANDARD PLATE); “inactive; negative” (Test System: AMES SALMONELLA TYPHIMURIUM, Strain/Indicator: TA1535, Metabolic Activation: RAT, LIVER, S-9, AROCLOR 1254, Method: STANDARD PLATE). Moreover, the mutagenic call is, setting by setting: (Test System: AMES SALMONELLA TYPHIMURIUM, Strain/Indicator: TA1537, Metabolic Activation: NONE, Method: STANDARD PLATE) “inactive; negative”; (Test System: AMES SALMONELLA TYPHIMURIUM, Strain/Indicator: TA1537, Metabolic Activation: RAT, LIVER, S-9, AROCLOR 1254, Method: STANDARD PLATE) “inactive; negative”.
